# Test: Compound was tested for the […] domain binding using BIA core binding assay
Compound,IC50 [µM],Kd [µM]
CC(=O)N1CCC[C@@H]1C(=O)N[C@@H](CCCN=C(N)N)C(=O)N1CCC[C@@H]1C(=O)N[C@@H](CC(C)C)C(=O)N1CCC[C@@]12CC[C@@H]1SC[C@H](C(=O)N[C@@H](C)C(=O)N3CCC[C@H]3C(=O)NCC(=O)O)N1C2=O,75,–
CC(=O)N1CCC[C@@H]1C(=O)N[C@@H](CCCN=C(N)N)C(=O)N1CCC[C@@H]1C(=O)N[C@@H](CC(C)C)C(=O)N1CCC[C@]12CC[C@H]1SC[C@@H](C(=O)N[C@@H](C)C(=O)N3CCC[C@H]3C(=O)NCC(=O)O)N1C2=O,46,–
CC(C)C[C@H](NC(=O)[C@H](CO)NC(=O)[C@@H](N)C(C)C)C(=O)N[C@@H](C)C(=O)N[C@@H](CCCN=C(N)N)C(=O)N[C@@H](CCCN=C(N)N)C(=O)N1CCC[C@H]1C(=O)N[C@@H](CC(C)C)C(=O)N1CCC[C@H]1C(=O)N1CCC[C@H]1C(=O)N[C@@H](CC(C)C)C(=O)N1CCC[C@H]1C(=O)O,–,1.6
